Test results taken from patent US10414811B2, “Protease-resistant lipidated GLP-1 analogs” (MEDIMMUNE LIMITED, priority 2015, dated 2019).
Where two headings read alike, the source gives them in different places. Numbered stars: 1 amine (or outer) side, 2 acyl side, 3 side chain; on linkers, the order of the positions; unused ones are H or OH. Square brackets hold non-standard residues; d marks the D form. Side chains are listed from the residue outwards. Peptide text beside a SMILES is read from it. * marks the point of attachment. γGlu = O=C(O)[C@H](CCC(=O)[*:2])N[*:1]; Palmitoyl = CCCCCCCCCCCCCCCC(=O)*; αMeF = C[C@](N)(Cc1ccccc1)C(=O)O; αMeK = C[C@](N)(CCCCN)C(=O)O; αMeS = C[C@](N)(CO)C(=O)O; Aib = CC(C)(N)C(=O)O

Key:
Assay type in all cases: cell-based
[1] = target: T1, human GLP-1 receptor (GLP-1R) (Homo sapiens, UniProt P43220); experiment: cAMP assay, human GLP-1R cells
T1 construct: expressed in transfected cells
T1 sequence (P43220 24-463): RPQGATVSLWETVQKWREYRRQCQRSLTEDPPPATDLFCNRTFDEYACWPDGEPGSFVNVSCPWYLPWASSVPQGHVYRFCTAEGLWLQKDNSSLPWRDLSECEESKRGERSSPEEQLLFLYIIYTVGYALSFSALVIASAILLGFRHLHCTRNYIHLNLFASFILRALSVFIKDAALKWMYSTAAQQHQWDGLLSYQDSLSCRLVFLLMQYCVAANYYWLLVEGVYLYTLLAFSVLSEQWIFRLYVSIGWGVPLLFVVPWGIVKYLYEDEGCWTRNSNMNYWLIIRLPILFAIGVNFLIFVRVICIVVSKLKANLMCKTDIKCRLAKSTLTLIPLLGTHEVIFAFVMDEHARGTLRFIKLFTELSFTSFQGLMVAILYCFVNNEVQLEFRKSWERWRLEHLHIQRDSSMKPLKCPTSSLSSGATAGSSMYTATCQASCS
Method in brief: (§1)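 Peptide-stimulated cAMP measured by two-step HTRF after a 30 min room-temperature incubation with receptor-expressing cells (hGLP-1R, hGIPR at 1×10^5 cells/ml; hGCGR at 2×10^5 cells/ml). Duplicate dilutions; EC50 from 4-parameter logistic fit of % Delta F.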

[2] = target: T2, human glucagon receptor (GCGR) (Homo sapiens, UniProt P47871); experiment: cAMP assay, human GCGR cells; details: cAMP assay
T2 construct: expressed in transfected cells
T2 sequence (P47871 26-477): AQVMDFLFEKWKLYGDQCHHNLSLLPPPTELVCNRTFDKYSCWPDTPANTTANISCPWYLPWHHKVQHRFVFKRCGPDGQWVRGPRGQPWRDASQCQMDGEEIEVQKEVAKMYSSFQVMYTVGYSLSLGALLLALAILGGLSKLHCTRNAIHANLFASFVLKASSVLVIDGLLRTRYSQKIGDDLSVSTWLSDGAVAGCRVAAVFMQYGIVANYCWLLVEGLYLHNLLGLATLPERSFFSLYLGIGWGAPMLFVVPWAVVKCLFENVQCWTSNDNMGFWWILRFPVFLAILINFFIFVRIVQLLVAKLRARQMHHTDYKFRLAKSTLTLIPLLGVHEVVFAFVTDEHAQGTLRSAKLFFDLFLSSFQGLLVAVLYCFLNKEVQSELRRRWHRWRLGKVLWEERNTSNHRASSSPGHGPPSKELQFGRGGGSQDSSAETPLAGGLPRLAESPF
Method in brief: as §1

[3] = target: T3, human glucose-dependent insulinotropic peptide receptor (GIPR) (Homo sapiens, UniProt P48546); experiment: cAMP assay, human GIPR cells; details: cAMP assay
T3 construct: expressed in transfected cells
T3 sequence (P48546 22-466): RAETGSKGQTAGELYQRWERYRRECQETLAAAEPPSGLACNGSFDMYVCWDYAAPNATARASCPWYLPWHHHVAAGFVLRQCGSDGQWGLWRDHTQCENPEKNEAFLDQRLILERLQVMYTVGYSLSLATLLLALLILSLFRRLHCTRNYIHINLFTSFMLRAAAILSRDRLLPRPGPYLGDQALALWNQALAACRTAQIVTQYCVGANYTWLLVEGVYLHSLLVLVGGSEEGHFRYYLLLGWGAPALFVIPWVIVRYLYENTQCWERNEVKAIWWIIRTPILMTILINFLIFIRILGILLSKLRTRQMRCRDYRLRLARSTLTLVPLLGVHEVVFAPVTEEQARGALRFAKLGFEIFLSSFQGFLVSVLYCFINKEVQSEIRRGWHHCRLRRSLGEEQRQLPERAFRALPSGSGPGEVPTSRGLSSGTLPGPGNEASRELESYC
Method in brief: as §1

GLP-1R (INS1e assay) = target: T4, GLP-1R (INS1e assay) (Rattus norvegicus, UniProt P32301); experiment: INS1e assay, cAMP activity at GLP-1R; details: mono-lipidated peptides
T4 construct: endogenous in cells; host or cells: INS-1E cells
T4 sequence (P32301 22-463): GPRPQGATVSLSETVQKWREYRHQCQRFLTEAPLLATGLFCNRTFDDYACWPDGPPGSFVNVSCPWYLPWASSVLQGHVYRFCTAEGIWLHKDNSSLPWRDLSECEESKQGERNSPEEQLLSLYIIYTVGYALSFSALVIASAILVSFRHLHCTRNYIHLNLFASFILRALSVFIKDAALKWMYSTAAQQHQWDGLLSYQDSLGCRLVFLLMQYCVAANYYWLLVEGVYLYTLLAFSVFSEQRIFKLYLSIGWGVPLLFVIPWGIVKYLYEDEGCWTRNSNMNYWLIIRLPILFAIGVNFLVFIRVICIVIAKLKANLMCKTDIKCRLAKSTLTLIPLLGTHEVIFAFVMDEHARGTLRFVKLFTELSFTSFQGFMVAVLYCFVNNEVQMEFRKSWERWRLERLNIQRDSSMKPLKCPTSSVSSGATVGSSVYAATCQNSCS
Method in brief: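 cAMP was quantified by two-step HTRF, using anti-cAMP cryptate donor and cAMP-d2 acceptor, each diluted 1/20 in conjugate and lysis buffer. EC50 values of the synthetic peptides were derived from the cAMP readout.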

[4] = cAMP assay, first determination (n1), read-out: Primary assay EC50 GLP-1R n1
[5] = cAMP assay, second determination (n2), read-out: Primary assay EC50 GLP-1R n2
[6] = mean of n1 and n2, read-out: Mean pM GLP-1R
[7] = first determination (n1), read-out: Primary assay EC50 Gluc-R (n1)
[8] = second determination (n2), read-out: Primary assay EC50 Gluc-R (n2)
[9] = first determination (n1), read-out: Primary assay EC50 GIP-R (n1)
[10] = second determination (n2), read-out: Primary assay EC50 GIP-R (n2)
[11] = mean of n1 and n2, read-out: INS1e assay EC50 Mean pM GLP-1R
[12] = replicate n1, read-out: INS1e assay EC50 GLP-1R n1
[13] = replicate n2, read-out: INS1e assay EC50 GLP-1R n2

| EC50 [1, 4] | EC50 [1, 5] | EC50 [1, 6] | EC50 [2, 7] | EC50 [2, 8] | EC50 [3, 9] | EC50 [3, 10] | EC50 (GLP-1R (INS1e assay); [11]) | EC50 (GLP-1R (INS1e assay); [12]) | EC50 (GLP-1R (INS1e assay); [13]) | SMILES |
| --- | --- | --- | --- | --- | --- | --- | --- | --- | --- | --- |
| 8.4 pM | 6 pM | 7.2 pM | ≥ 27000 pM | ≥ 27000 pM | ≥ 27000 pM | ≥ 27000 pM | 429 pM | 326 pM | 531 pM | CCCCCCCCCCCCCCCC(=O)N[C@@H](CCC(=O)NCCCC[C@H](NC(=O)[C@@H](NC(=O)[C@](C)(Cc1ccccc1)NC(=O)[C@H](CCC(=O)O)NC(=O)[C@](C)(CCCCN)NC(=O)[C@H](C)NC(=O)[C@H](C)NC(=O)[C@H](CCC(=O)O)NC(=O)CNC(=O)[C@H](CCC(=O)O)NC(=O)[C@H](CC(C)C)NC(=O)[C@](C)(Cc1ccccc1)NC(=O)[C@H](CO)NC(=O)[C@](C)(CO)NC(=O)[C@@H](NC(=O)[C@H](CC(=O)O)NC(=O)[C@H](CO)NC(=O)[C@@H](NC(=O)[C@](C)(Cc1ccccc1)NC(=O)[C@H](CO)NC(=O)CNC(=O)[C@H](CCC(=O)O)NC(=O)C(C)(C)NC(=O)[C@@H](N)Cc1c[nH]cn1)[C@@H](C)O)C(C)C)[C@@H](C)CC)C(=O)N[C@@](C)(Cc1ccccc1)C(=O)N[C@H](C(=O)N[C@H](C(=O)N[C@@](C)(CCCCN)C(=O)NCC(=O)NCC(N)=O)C(C)C)C(C)C)C(=O)O [compound 76] (H-H[Aib]EGS[αMeF]TSDV[αMeS]S[αMeF]LEGEAA[αMeK]E[αMeF]IK([γGlu-Palmitoyl])[αMeF]VV[αMeK]GG-NH2; N-terminus assumed) |
| 7.2 pM | 2.7 pM | 4.9 pM | ≥ 26000 pM | ≥ 26000 pM | ≥ 26000 pM | ≥ 26000 pM | 460 pM | 233 pM | 687 pM | CCCCCCCCCCCC(=O)N[C@@H](CCC(=O)N[C@@H](CCC(=O)N[C@@H](CCC(=O)NCCCC[C@H](NC(=O)[C@@H](NC(=O)[C@@H](NC(=O)[C@](C)(Cc1ccccc1)NC(=O)[C@H](C)NC(=O)[C@@H](NC(=O)[C@](C)(Cc1ccccc1)NC(=O)[C@H](CCC(=O)O)NC(=O)[C@](C)(CCCCN)NC(=O)[C@H](C)NC(=O)[C@H](C)NC(=O)[C@H](CCC(=O)O)NC(=O)CNC(=O)[C@H](CCC(=O)O)NC(=O)[C@H](CC(C)C)NC(=O)[C@](C)(Cc1ccccc1)NC(=O)[C@H](CO)NC(=O)[C@](C)(CO)NC(=O)[C@@H](NC(=O)[C@H](CC(=O)O)NC(=O)[C@H](CO)NC(=O)[C@@H](NC(=O)[C@](C)(Cc1ccccc1)NC(=O)[C@H](CO)NC(=O)CNC(=O)[C@H](CCC(=O)O)NC(=O)C(C)(C)NC(=O)[C@@H](N)Cc1c[nH]cn1)[C@@H](C)O)C(C)C)[C@@H](C)CC)C(C)C)C(C)C)C(=O)NCC(=O)NCC(N)=O)C(=O)O)C(=O)O)C(=O)O [compound 166] |
| 1.5 pM | – | 1.1 pM | ≥ 26000 pM | ≥ 26000 pM | ≥ 26000 pM | ≥ 26000 pM | 33.8 pM | 39.6 pM | 28 pM | CCCCCCCCCCCC(=O)NCCOCCOCC(=O)NCCOCCOCC(=O)NCCOCCOCC(=O)NCCCC[C@H](NC(=O)[C@@H](NC(=O)[C@@H](NC(=O)[C@](C)(Cc1ccccc1)NC(=O)[C@H](C)NC(=O)[C@@H](NC(=O)[C@](C)(Cc1ccccc1)NC(=O)[C@H](CCC(=O)O)NC(=O)[C@](C)(CCCCN)NC(=O)[C@H](C)NC(=O)[C@H](C)NC(=O)[C@H](CCC(=O)O)NC(=O)CNC(=O)[C@H](CCC(=O)O)NC(=O)[C@H](CC(C)C)NC(=O)[C@](C)(Cc1ccccc1)NC(=O)[C@H](CO)NC(=O)[C@](C)(CO)NC(=O)[C@@H](NC(=O)[C@H](CC(=O)O)NC(=O)[C@H](CO)NC(=O)[C@@H](NC(=O)[C@](C)(Cc1ccccc1)NC(=O)[C@H](CO)NC(=O)CNC(=O)[C@H](CCC(=O)O)NC(=O)C(C)(C)NC(=O)[C@@H](N)Cc1c[nH]cn1)[C@@H](C)O)C(C)C)[C@@H](C)CC)C(C)C)C(C)C)C(=O)NCC(=O)NCC(N)=O [compound 172] |
